# Non-standard residues stand in square brackets, D forms with d. Groups on a side chain read outwards from the residue. No end group written: not given here. disulfide linker = not defined here; Pen = CC(C)(S)[C@H](N)C(=O)O
# Columns and labels:
# Type in all cases: in vivo
# DIO mice [1] = assay: Body weight in diet-induced obesity (DIO) mice; conditions: for reduction in body weight (BW %): FIG. 8, after 10 days of treatment; for body weight percentage (BW %) reduction: FIG. 4, 40 nmol/kg or equimolar, DIO mice treated for 8 days; for reduction in body weight %: FIG. 14, DIO mice treated for 5 days, N=7
# Method: (§1) C57BL6J male mice, in the following referred to as diet-induced obesity (DIO) mice, were maintained on a high-fat diet (58% energy from fat) and had, for each study, an average body weight of more than 45 gram prior to study start. Mice were either housed individually or double-housed. The mice were maintained on a 12 h dark-light cycle at 21-23° C. Compounds were administered subcutaneously once daily (between 2 pm-5 pm) and food intake (FI) and body weight (BW) measured at the corresponding time. For body composition, measures of fat and lean mass were performed prior to the study (1-3 days prior to study start) and on the final day of the study using an MRI scanner (EchoMRI). The group of mice injected with a vehicle (saline) served as the control group.
# DIO mice [2] = assay: Body composition (fat and lean mass, MRI) in DIO mice; conditions: for change in fat body mass (Delta change) / change in lean body mass (Delta change): FIG. 7, 40 nmol/kg or equimolar, DIO mice treated for 8 days
# Method: as §1
# DIO mice [3] = assay: Food intake in diet-induced obesity (DIO) mice
# Method: as §1
# [4] = 100 nmol/kg or equimolar, DIO mice
# [5] = FIG. 9, 100 nmol/kg or equimolar, DIO mice treated for 10 days
# [6] = FIG. 11, 100 nmol/kg, DIO mice treated for 10 days
# [7] = FIG. 5, equimolar doses, DIO mice treated for 8 days, compared to vehicle and memantine
# [8] = FIG. 6, 40 nmol/kg or equimolar, DIO mice treated for 8 days
compound,measurement,setting,value
"C[C@]12N[C@H](Cc3ccccc31)c1ccccc12 [MK801, reference compound]",reduction in body weight (BW %),DIO mice [1]; [4],nearly no percentage change
"CC12CC3CC(C)(C1)CC(N)(C3)C2 [memantine, reference compound]",change in fat body mass (Delta change),DIO mice [2],reduction in fat body mass
same,change in lean body mass (Delta change),DIO mice [2],nearly no change
"GIP/GLP-1/MK801 conjugate: co-agonist GIP/GLP-1 Pen40/MK801 conjugate, peptide according to SEQ ID NO:9 (YGEGTFTSDYSIYLDKQAAKEFVNWLLAGGPSSGAPPPS[Pen]([disulfide linker-MK801]); not fully specified (C-terminus); printed as YX1EGT FTSDY SIYLD KQAAX1 EFVNW LLAGG PSSGA PPPSX2; reading uncertain; also: MK801 attached via disulfide linker; listed as Homo sapiens)",overall reduction in body weight compared to the control group,"DIO mice [1]; FIG. 33, 50 nmol/kg, DIO mice treated for 7 days",approximately 25%
same,cumulative food intake (Cumulative FI),"DIO mice [3]; FIG. 34, 50 nmol/kg, DIO mice treated for 7 days, control group 15 g",approximately 3 g
"GLP-1 Cys40/MK801: peptide of SEQ ID NO:1 conjugated with chemical linker derivatized MK801, cysteine linked (HAEGTFTSDVSSYLEEQAAKEFIAWLVKGGPSSGAPPPSC; not fully specified (residue 40, C-terminus); ends and bridges not checked; listed as Homo sapiens)",reduction in body weight (BW %),DIO mice [1]; [4],~12%
same,cumulative food intake (FI Cumulative),DIO mice [3]; [5],approximately 13 g/day
same,cumulative food intake less than the vehicle-treated mice,"DIO mice [3]; FIG. 9, 100 nmol/kg, DIO mice treated for 10 days",approximately 10 g/day
same,daily food intake (FI daily),"DIO mice [3]; FIG. 10, 100 nmol/kg, DIO mice treated for 10 days, compared to vehicle",reduction in food intake was observed all 10 days
same,change in fat mass (reduction),DIO mice [2]; [6],~5 g
same,change in lean body mass,DIO mice [2]; [6],reduction in both fat and lean body mass
"GLP-1 Cys40/Memantine: conjugate of peptide of SEQ ID NO:1 and memantine appended via disulfide linker, unmodified cysteine (cysteine linked) (HAEGTFTSDVSSYLEEQAAKEFIAWLVKGGPSSGAPPPSC; not fully specified (residue 40, C-terminus); ends and bridges not checked; listed as Homo sapiens)",body weight percentage (BW %) reduction,DIO mice [1],approximately 7%
same,cumulative food intake (FI Cumulative),DIO mice [3]; [7],lowered cumulative food intake
same,daily food intake (FI daily),DIO mice [3]; [8],lowered daily food intake
same,change in fat body mass (Delta change),DIO mice [2],approximately 4 g
same,change in lean body mass (Delta change),DIO mice [2],nearly no change
"GLP-1 Cys40: the peptide of SEQ ID NO:1, C-terminal unmodified cysteine (HAEGTFTSDVSSYLEEQAAKEFIAWLVKGGPSSGAPPPSC; not fully specified (C-terminus); ends and bridges not checked; listed as Homo sapiens)",body weight percentage (BW %) reduction,DIO mice [1],lowered BW %
same,reduction in body weight (BW %),DIO mice [1]; [4],approximately 8%
same,body weight reduction,"DIO mice [1]; FIG. 12, 100 nmol/kg or equimolar, DIO mice, after 5 days of treatment",approximately 4%
same,reduction in body weight %,DIO mice [1]; 100 nmol/kg or equimolar,approximately 6%
same,cumulative food intake (FI Cumulative),DIO mice [3]; [7],lowered cumulative food intake
same,daily food intake (FI daily),DIO mice [3]; [8],lowered daily food intake
same,daily food intake (FI daily),"DIO mice [3]; FIG. 6, 40 nmol/kg or equimolar, DIO mice treated for 8 days, listed as GLP-1",only a slight reduction in food intake
same,cumulative food intake (FI Cumulative),DIO mice [3]; [5],lowered cumulative food intake
same,change in fat body mass (Delta change),DIO mice [2],reduction in fat body mass
same,change in lean body mass (Delta change),DIO mice [2],nearly no change
"GLP-1 Pen40: peptide of SEQ ID NO:1 with the Pen40 (L-penicillamine) modification (HAEGTFTSDVSSYLEEQAAKEFIAWLVKGGPSSGAPPPSC; not fully specified (residue 40, C-terminus); ends and bridges not checked; listed as Homo sapiens)",reduction in body weight %,DIO mice [1]; 100 nmol/kg or equimolar,approximately 6%

# From patent US20230183335A1, “GLP1R AGONIST NMDAR ANTAGONIST CONJUGATES” (KØBENHAVNS UNIVERSITET, priority 2020, published 2023)
